From article PMC9851200, “Multiparameter phenotypic screening for endogenous TFEB and TFE3 translocation identifies novel chemical series modulating lysosome function” (Autophagy, 2022) come the findings set out here.

Common to all, as to type: binding
Assay [1] concerns the target kinases (KINOMEscan panel) (Homo sapiens, UniProt Q9H2X6). The conditions noted are these: NEW KINOMEscan.
Assay [2] deals with T1, kinases (KINOMEscan panel) (Homo sapiens, UniProt O14757).
T1 sequence (O14757 1-476): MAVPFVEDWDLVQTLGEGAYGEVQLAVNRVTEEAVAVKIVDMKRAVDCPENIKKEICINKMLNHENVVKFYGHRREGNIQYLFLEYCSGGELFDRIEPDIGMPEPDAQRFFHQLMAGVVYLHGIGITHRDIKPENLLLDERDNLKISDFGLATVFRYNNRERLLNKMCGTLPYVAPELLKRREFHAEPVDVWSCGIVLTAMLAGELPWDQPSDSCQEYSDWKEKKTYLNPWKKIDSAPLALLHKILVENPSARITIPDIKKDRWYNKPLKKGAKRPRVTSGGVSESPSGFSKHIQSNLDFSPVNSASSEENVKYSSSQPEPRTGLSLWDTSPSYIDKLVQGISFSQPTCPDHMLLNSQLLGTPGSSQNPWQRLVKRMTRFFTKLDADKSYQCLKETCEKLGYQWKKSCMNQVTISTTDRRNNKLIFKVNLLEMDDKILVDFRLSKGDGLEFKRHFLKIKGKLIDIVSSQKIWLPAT
The conditions noted are these: CHEK1; NEW KINOMEscan.

The target of assay [3] is kinases (KINOMEscan panel) (Homo sapiens, UniProt Q9P1W9). Conditions: PIM2; NEW KINOMEscan.
Sequence of kinases (KINOMEscan panel) (Homo sapiens, UniProt Q9P1W9) (Q9P1W9 whole entry): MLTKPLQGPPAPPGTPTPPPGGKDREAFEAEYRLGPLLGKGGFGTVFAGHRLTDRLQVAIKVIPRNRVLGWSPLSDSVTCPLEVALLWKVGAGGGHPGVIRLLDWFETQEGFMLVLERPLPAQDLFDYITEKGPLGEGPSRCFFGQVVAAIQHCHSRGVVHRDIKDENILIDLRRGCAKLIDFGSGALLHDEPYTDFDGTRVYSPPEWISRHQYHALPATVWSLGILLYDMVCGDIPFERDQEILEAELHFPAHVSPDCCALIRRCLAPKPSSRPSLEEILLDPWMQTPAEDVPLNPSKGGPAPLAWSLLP
For assay [4], the target named is kinases (KINOMEscan panel) (Homo sapiens, UniProt Q00535). Conditions: NEW KINOMEscan.
Sequence of kinases (KINOMEscan panel) (Homo sapiens, UniProt Q00535) (Q00535 whole entry): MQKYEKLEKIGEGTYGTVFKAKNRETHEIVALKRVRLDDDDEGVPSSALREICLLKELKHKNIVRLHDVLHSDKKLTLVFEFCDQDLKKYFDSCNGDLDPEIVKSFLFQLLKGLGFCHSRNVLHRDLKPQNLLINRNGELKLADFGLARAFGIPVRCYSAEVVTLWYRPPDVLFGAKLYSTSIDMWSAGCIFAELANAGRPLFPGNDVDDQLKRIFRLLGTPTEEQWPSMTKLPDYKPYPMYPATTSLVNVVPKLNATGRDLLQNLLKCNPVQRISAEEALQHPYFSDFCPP
The target of assay [5] is kinases (KINOMEscan panel) (Homo sapiens, UniProt P24941). The conditions noted are these: CDK2; NEW KINOMEscan.
Assay [6] has as its target kinases (KINOMEscan panel) (Homo sapiens, UniProt P15056). The conditions noted are these: BRAF; NEW KINOMEscan.
For assay [7], the target named is kinases (KINOMEscan panel) (Homo sapiens, UniProt Q9Y463). Conditions: kinase DYRK1B; NEW KINOMEscan.
Sequence of kinases (KINOMEscan panel) (Homo sapiens, UniProt Q9Y463) (Q9Y463 whole entry): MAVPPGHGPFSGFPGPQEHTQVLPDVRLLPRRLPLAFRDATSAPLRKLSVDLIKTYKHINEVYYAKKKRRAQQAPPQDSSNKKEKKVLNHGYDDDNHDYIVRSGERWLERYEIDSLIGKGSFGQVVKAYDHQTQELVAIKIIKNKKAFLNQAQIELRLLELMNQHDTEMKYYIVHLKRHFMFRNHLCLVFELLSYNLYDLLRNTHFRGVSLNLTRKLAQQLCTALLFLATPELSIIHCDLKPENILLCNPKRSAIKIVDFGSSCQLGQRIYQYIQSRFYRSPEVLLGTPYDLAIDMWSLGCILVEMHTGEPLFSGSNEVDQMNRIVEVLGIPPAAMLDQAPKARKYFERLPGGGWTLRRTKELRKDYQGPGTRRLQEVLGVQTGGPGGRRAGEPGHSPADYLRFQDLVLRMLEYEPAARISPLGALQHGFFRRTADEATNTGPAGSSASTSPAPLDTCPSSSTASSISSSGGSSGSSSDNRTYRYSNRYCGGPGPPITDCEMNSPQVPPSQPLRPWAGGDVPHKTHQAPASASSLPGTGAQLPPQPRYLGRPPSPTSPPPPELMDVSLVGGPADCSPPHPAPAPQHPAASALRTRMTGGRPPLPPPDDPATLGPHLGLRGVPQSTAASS
The target of assay [8] is kinases (KINOMEscan panel) (Homo sapiens, UniProt Q9HCP0). The conditions noted are these: kinase CSNK1G1; NEW KINOMEscan.
Sequence of kinases (KINOMEscan panel) (Homo sapiens, UniProt Q9HCP0) (Q9HCP0 whole entry): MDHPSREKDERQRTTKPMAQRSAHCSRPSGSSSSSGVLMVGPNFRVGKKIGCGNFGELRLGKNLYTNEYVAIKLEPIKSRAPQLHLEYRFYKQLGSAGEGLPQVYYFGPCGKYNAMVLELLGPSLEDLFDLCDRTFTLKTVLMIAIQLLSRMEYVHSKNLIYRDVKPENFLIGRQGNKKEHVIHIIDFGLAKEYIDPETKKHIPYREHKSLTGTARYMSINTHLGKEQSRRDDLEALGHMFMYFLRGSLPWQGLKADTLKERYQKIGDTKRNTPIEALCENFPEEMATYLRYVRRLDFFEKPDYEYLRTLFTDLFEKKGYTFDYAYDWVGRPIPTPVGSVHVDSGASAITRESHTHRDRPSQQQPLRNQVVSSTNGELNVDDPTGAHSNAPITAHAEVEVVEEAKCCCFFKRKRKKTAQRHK
In assay [9] the target is kinases (KINOMEscan panel) (Homo sapiens, UniProt P24723). Conditions: kinase PRKCH; NEW KINOMEscan.
Sequence of kinases (KINOMEscan panel) (Homo sapiens, UniProt P24723) (P24723 whole entry): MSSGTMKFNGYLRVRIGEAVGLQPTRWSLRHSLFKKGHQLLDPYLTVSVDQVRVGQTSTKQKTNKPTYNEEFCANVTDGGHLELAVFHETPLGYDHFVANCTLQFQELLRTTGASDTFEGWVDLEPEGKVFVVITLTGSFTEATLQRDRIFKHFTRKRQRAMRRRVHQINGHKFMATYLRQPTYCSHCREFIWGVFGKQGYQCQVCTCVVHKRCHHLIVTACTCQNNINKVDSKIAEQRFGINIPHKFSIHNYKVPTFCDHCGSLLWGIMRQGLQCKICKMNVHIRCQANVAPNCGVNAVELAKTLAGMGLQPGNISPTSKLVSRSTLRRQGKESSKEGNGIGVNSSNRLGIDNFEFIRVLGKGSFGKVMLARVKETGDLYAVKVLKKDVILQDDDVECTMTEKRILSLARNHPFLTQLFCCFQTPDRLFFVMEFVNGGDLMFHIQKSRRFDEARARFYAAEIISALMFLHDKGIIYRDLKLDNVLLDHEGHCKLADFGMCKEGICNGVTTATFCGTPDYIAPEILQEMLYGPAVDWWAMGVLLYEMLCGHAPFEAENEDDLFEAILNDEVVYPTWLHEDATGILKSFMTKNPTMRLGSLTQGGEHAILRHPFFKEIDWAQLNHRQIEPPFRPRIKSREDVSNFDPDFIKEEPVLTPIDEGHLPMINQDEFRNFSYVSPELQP
Assay [10] has as its target T2, kinases (KINOMEscan panel) (Homo sapiens, UniProt P42680).
T2 sequence (P42680 1-631): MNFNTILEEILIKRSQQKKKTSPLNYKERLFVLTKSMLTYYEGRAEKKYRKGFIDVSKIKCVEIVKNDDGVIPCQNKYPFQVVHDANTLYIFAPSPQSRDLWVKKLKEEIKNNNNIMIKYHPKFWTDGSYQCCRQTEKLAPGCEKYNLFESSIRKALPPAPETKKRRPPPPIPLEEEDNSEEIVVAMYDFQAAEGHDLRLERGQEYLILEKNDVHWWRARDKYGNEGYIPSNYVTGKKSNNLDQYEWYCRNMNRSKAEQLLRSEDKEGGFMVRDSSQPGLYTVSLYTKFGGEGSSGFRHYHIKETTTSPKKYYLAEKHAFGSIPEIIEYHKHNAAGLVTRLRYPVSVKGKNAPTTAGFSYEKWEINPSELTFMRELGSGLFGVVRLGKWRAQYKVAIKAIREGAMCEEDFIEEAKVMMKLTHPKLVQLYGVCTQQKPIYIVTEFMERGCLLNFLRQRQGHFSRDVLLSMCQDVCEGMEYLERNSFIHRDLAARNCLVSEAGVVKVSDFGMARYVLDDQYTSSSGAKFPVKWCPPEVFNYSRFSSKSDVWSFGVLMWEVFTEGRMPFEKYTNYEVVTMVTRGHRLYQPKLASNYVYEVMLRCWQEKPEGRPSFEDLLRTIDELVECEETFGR
Conditions: kinase TEC; NEW KINOMEscan.

The target of assay [11] is kinases (KINOMEscan panel) (Homo sapiens, UniProt Q9Y6R4). Conditions: MAP3K4; NEW KINOMEscan.
Sequence of kinases (KINOMEscan panel) (Homo sapiens, UniProt Q9Y6R4) (Q9Y6R4 whole entry): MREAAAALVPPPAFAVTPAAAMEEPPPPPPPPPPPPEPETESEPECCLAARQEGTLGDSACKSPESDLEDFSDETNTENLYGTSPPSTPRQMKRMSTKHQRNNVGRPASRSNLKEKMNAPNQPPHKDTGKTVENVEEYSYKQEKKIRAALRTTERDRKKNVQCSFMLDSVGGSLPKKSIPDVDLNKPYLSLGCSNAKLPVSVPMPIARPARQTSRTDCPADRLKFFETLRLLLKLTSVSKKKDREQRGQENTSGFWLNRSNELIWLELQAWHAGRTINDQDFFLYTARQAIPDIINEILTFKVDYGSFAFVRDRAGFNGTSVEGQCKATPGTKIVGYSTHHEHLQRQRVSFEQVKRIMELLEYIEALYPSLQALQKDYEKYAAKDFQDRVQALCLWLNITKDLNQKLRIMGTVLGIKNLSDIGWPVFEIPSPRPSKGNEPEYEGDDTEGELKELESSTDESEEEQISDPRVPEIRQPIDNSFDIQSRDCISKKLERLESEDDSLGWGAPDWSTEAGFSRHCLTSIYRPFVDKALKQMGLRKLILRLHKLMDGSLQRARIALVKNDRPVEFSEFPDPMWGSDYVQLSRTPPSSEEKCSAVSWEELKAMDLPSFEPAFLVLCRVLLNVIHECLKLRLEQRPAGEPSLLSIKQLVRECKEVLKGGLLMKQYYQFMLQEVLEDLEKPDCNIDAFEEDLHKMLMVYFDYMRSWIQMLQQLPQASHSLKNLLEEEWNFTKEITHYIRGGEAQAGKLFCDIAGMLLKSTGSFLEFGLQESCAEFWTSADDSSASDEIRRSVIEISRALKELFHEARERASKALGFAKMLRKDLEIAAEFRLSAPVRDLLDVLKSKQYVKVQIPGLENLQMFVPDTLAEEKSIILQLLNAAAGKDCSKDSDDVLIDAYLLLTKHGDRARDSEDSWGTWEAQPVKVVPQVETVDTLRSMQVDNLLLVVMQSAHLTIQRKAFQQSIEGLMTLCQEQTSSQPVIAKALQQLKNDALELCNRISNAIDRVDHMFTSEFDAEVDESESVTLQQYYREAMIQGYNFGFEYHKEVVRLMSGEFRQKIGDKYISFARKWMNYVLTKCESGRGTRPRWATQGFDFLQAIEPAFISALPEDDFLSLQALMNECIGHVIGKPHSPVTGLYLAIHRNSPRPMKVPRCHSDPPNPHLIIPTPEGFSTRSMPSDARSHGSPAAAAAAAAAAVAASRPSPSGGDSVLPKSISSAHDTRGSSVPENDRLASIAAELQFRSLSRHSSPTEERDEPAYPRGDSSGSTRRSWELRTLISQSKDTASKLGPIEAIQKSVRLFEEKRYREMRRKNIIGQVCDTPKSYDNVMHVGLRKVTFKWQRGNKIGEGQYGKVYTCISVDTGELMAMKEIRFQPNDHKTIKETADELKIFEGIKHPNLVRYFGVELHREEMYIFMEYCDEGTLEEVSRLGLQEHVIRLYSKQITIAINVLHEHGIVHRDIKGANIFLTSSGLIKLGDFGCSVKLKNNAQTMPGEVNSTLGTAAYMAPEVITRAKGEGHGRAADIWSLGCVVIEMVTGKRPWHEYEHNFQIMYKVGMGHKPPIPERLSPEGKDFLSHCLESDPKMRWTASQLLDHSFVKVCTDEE
Assay [12] addresses kinases (KINOMEscan panel) (Homo sapiens, UniProt P08581, Y1235D). The conditions noted are these: kinase MET(Y1235D); NEW KINOMEscan.
Assay [13] has as its target T3, kinases (KINOMEscan panel) (Homo sapiens, UniProt P51955).
T3 sequence (P51955 1-445): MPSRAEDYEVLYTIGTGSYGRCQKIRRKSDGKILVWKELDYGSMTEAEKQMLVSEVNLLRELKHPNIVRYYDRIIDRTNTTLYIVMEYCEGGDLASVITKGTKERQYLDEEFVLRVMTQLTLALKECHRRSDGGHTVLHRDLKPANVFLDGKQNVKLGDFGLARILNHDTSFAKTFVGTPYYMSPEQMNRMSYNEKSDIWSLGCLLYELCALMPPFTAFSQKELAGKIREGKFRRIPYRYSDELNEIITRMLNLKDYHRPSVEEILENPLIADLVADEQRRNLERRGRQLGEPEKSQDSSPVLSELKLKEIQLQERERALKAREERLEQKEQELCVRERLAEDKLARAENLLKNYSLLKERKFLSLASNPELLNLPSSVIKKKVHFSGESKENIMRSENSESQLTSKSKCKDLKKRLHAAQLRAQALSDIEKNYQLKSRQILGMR
Conditions: kinase NEK2; NEW KINOMEscan.

Assay [14] has as its target kinases (KINOMEscan panel) (Homo sapiens, UniProt Q5S007). The conditions noted are these: NEW KINOMEscan.

Sequence of kinases (KINOMEscan panel) (Homo sapiens, UniProt P15056) (P15056 whole entry): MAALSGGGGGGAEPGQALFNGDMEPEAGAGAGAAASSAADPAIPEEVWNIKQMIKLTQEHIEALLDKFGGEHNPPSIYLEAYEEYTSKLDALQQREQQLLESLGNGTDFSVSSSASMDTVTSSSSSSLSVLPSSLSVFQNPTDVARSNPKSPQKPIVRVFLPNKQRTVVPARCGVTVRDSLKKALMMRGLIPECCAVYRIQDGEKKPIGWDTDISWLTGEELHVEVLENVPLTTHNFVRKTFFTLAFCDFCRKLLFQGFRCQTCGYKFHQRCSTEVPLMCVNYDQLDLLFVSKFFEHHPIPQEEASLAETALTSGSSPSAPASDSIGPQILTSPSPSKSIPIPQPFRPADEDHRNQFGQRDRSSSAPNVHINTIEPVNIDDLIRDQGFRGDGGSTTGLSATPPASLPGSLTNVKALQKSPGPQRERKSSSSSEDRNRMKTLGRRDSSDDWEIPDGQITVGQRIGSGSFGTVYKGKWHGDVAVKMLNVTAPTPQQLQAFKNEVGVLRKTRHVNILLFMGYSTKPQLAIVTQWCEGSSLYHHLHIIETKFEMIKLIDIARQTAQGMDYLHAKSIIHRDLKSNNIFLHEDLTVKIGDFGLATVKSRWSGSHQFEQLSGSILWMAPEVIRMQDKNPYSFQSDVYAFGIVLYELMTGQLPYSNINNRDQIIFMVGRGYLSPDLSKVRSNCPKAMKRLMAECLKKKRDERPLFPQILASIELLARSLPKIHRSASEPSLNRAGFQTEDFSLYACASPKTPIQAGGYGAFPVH

As to `Cc1cccc(-c2nc(Nc3ccc4nn(C)cc4c3)c3ccccc3n2)n1` [NK167], in assay [1], the “KINOMEscan HIPK2” value was determined as 33. Also, the “KINOMEscan CHEK1” value in assay [2] was 2. Also, in [3], the “KINOMEscan PIM2” value was 2. For the same molecule, the “KINOMEscan CDK5” value in assay [4] turned out to be 14. Further, in assay [5], the “KINOMEscan CDK2” value is 0. Also, the “KINOMEscan BRAF” value in assay [6] was 0. For the same molecule, the “KINOMEscan DYRK1B” value in assay [7] was 12. Besides, the “KINOMEscan CSNK1G1” value in assay [8] amounted to 0. Besides, in assay [9], the “KINOMEscan PRKCH” value came out at 21. Moreover, the “KINOMEscan TEC” value in assay [10] came to 0. Moreover, in [11], the “KINOMEscan MAP3K4” value is listed as 3. Besides, in assay [12], the “KINOMEscan MET(Y1235D)” value is recorded as 7. Besides, the “KINOMEscan NEK2” value in [13] amounted to 0. Also, the “KINOMEscan LRRK2” value in assay [14] is listed as 21.
In the case of `Cc1cccc(-c2nc(N(C)c3ccc4ncsc4c3)c3ccccc3n2)n1` [NK-161], in assay [1], the “KINOMEscan HIPK2” value turned out to be 28. Besides, in [2], the “KINOMEscan CHEK1” value came out at 3. For the same molecule, in assay [3], the “KINOMEscan PIM2” value stood at 18. Also, in [4], the “KINOMEscan CDK5” value came to 19. The “KINOMEscan CDK2” value in assay [5] was 0. Moreover, the “KINOMEscan BRAF” value in assay [6] was 0. Moreover, in [7], the “KINOMEscan DYRK1B” value worked out at 16. The “KINOMEscan CSNK1G1” value in assay [8] is listed as 0. The “KINOMEscan PRKCH” value in assay [9] was determined as 8. For the same molecule, the “KINOMEscan TEC” value in assay [10] is reported as 0. In assay [11], the “KINOMEscan MAP3K4” value came to 0. The “KINOMEscan MET(Y1235D)” value in assay [12] is recorded as 1. In [13], the “KINOMEscan NEK2” value is recorded as 1. The “KINOMEscan LRRK2” value in assay [14] is 27.
